Numbered stars: 1 amine (or outer) side, 2 acyl side, 3 side chain; on linkers, the order of the positions; unused ones are H or OH. Bridge positions count the residues as written; N and C are the ends. Square brackets hold non-standard residues; d marks the D form. Peptide text beside a SMILES is read from it. * marks the point of attachment. ξ: configuration not given here. Phe(3-CF3) = N[C@@H](Cc1cccc(C(F)(F)F)c1)C(=O)O; Ala(morpholin-4-yl) = N[C@@H](CN1CCOCC1)C(=O)O; Phe(4-COOH) = N[C@@H](Cc1ccc(C(=O)O)cc1)C(=O)O; X3 = CC(C)(F)C(=N)NCCC[C@H](N[*:1])C(=O)[*:2]; Bip = N[C@@H](Cc1ccc(-c2ccccc2)cc1)C(=O)O; Phe(3-CN) = N#Cc1cccc(C[C@H](N)C(=O)O)c1; NH(CH2)14COOH = O=C(O)CCCCCCCCCCCCCCN*; Phe(3-Me) = Cc1cccc(C[C@H](N)C(=O)O)c1; γGlu = O=C(O)[C@H](CCC(=O)[*:2])N[*:1]; NH(CH2)12COOH = O=C(O)CCCCCCCCCCCCN*; Val(3-OH) = CC(C)(O)[C@H](N)C(=O)O; hArg = N=C(N)NCCCC[C@H](N)C(=O)O; 4Pal = N[C@@H](Cc1ccncc1)C(=O)O; Abu(4-CN) = N#CCC[C@H](N)C(=O)O; Cha = N[C@@H](CC1CCCCC1)C(=O)O; Cit = NC(=O)NCCC[C@H](N)C(=O)O; Thr(3ξ) = CC(O)[C@H](N)C(=O)O; Carboxymethyl = O=C(O)C*; Orn = NCCC[C@H](N)C(=O)O; Aun = NCCCCCCCCCCC(=O)O; Dab = NCC[C@H](N)C(=O)O; Dap = NC[C@H](N)C(=O)O; AEEA = NCCOCCOCC(=O)O
Molecular target: T1, PD-1/PD-L1 interaction (PE-labeled human PD-L1-Ig binding to Jurkat cell line over-expressing human PD-1) (Homo sapiens, UniProt Q15116)
T1 construct: expressed in transfected cells; host or cells: Jurkat
Experiment: Jurkat-PD-1 Cell Binding High-Content Screening Assay (CBA)
Format: cell-based
Details: Jurkat cell line over-expressing human PD-1; PE-labeled PD-L1-Ig 20 nM final; read-out: Jurkat hPD1-PDL1 IC50
In short: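 First, compound is added to PD-1-expressing Jurkat cells in serum-containing DMEM and left 2 h at 37° C. Next, PE-conjugated PD-L1-Ig is introduced at 20 nM final concentration for 1 hour. Finally, cells are fixed in 4% paraformaldehyde with Hoechst 33342, washed and imaged.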

T1 sequence (Q15116 25-288): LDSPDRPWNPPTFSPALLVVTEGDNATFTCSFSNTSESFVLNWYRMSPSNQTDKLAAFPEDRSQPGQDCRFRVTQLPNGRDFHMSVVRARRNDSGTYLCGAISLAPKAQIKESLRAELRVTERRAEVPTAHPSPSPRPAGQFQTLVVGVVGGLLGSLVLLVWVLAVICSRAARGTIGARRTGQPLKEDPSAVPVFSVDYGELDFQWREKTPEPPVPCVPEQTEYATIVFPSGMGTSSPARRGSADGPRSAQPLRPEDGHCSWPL

IC50 | SMILES
340 nM | CC(C)C[C@H]1NC(=O)[C@H](Cc2cnc[nH]2)NC(=O)[C@H](Cc2ccc(C(=O)O)cc2)NC(=O)[C@H](Cc2ccc(-c3ccccc3)cc2)NC(=O)[C@H](Cc2ccc(C(=O)O)cc2)NC(=O)[C@H](Cc2cccc(C(F)(F)F)c2)NC(=O)[C@H](CC(=O)O)NC(=O)[C@H](Cc2ccc(OCC(=O)O)cc2)NC(=O)[C@H](Cc2ccc(OCC(=O)O)cc2)NC(=O)CSC[C@@H](C(=O)N[C@@H](CCN)C(=O)NCCOCCOCC(=O)NCCOCCOCC(=O)NCCCCCCCCCCCCCCC(=O)O)NC(=O)[C@H](CO)NC(=O)[C@H](C(C)(C)O)NC(=O)[C@H](CC2CCCCC2)NC(=O)[C@H](CCN)NC1=O [Compound 3840] ({CH2CO}-Y(Carboxymethyl)Y(Carboxymethyl)D[Phe(3-CF3)][Phe(4-COOH)][Bip][Phe(4-COOH)]H[dL][Dab][Cha][Val(3-OH)]SC[Dab][AEEA][AEEA]-{NH(CH2)14COOH}; thioether N-14)
11.8 nM | Cc1cccc(C[C@@H]2NC(=O)[C@H](CC(=O)O)NC(=O)[C@H](Cc3cccc(C#N)c3)NC(=O)[C@H](Cc3ccncc3)NC(=O)CSC[C@@H](C(=O)N[C@@H](CCN)C(=O)NCCCCCCCCCCC(=O)O)NC(=O)[C@H](CO)NC(=O)[C@H](C(C)(C)O)NC(=O)[C@H](CC3CCCCC3)NC(=O)[C@H](CCN)NC(=O)[C@@H](CC(C)C)NC(=O)[C@H](CCCN)NC(=O)[C@H](Cc3ccc(OCC(=O)O)cc3)NC(=O)[C@H](Cc3ccc(-c4ccccc4)cc3)NC(=O)[C@H](Cc3ccc(OCC(=O)O)cc3)NC2=O)c1 [Compound 2195] ({CH2CO}-[4Pal][Phe(3-CN)]D[Phe(3-Me)]Y(Carboxymethyl)[Bip]Y(Carboxymethyl)[Orn][dL][Dab][Cha][Val(3-OH)]SC[Dab][Aun]-OH; thioether N-14)
17.2 nM | CC(C)C[C@H]1NC(=O)[C@H](CCCN)NC(=O)[C@H](C(C)C)NC(=O)[C@H](Cc2ccc(-c3ccccc3)cc2)NC(=O)[C@H](C(C)C)NC(=O)[C@H](Cc2c[nH]c3ccccc23)NC(=O)[C@H](CC(=O)O)NC(=O)[C@H](Cc2ccc(OCC(=O)O)cc2)NC(=O)[C@H](CN)NC(=O)CSC[C@@H](C(=O)N[C@@H](CCC(=O)O)C(=O)NCC(=O)NCCCCCCCCCCC(=O)O)NC(=O)[C@H]([C@@H](C)O)NC(=O)[C@H](C(C)C)NC(=O)[C@H](CC2CCCCC2)NC(=O)[C@H](Cc2cnc[nH]2)NC1=O [Compound 1094] ({CH2CO}-[Dap]Y(Carboxymethyl)DWV[Bip]V[Orn][dL]H[Cha]VTCEG[Aun]-OH; thioether N-14)
52.9 nM | CC[C@H](C)[C@@H]1NC(=O)[C@H](Cc2ccc(-c3ccccc3)cc2)NC(=O)[C@H](C(C)C)NC(=O)[C@H](Cc2cccc(C)c2)NC(=O)[C@H](CC(=O)O)NC(=O)[C@H](Cc2ccc(C(=O)O)cc2)NC(=O)[C@H](Cc2ccncc2)NC(=O)CSC[C@@H](C(=O)N[C@@H](CCC(=O)O)C(=O)NCCCCCCCCCCC(=O)O)NC(=O)[C@H]([C@@H](C)O)NC(=O)[C@H](C(C)C)NC(=O)[C@H](CC2CCCCC2)NC(=O)[C@H](CCN)NC(=O)[C@@H](CC(C)C)NC(=O)[C@H](CCCN)NC1=O [Compound 1040] ({CH2CO}-[4Pal][Phe(4-COOH)]D[Phe(3-Me)]V[Bip]I[Orn][dL][Dab][Cha]VTCE[Aun]-OH; thioether N-14)
41.2 nM | Cc1cccc(C[C@@H]2NC(=O)[C@H](CC(=O)O)NC(=O)[C@H](Cc3ccc(OCC(=O)O)cc3)NC(=O)[C@H](Cc3ccncc3)NC(=O)CSC[C@@H](C(=O)N[C@@H](CO)C(=O)NCCCCCCCCCCC(=O)O)NC(=O)[C@H](CO)NC(=O)[C@H](C(C)(C)O)NC(=O)[C@H](CC3CCCCC3)NC(=O)[C@H](Cc3cnc[nH]3)NC(=O)[C@@H](CC(C)C)NC(=O)[C@H](CCCN)NC(=O)[C@H](Cc3ccc(OCC(=O)O)cc3)NC(=O)[C@H](Cc3ccc(-c4ccccc4)cc3)NC(=O)[C@H](Cc3ccc(OCC(=O)O)cc3)NC2=O)c1 [Compound 3722] ({CH2CO}-[4Pal]Y(Carboxymethyl)D[Phe(3-Me)]Y(Carboxymethyl)[Bip]Y(Carboxymethyl)[Orn][dL]H[Cha][Val(3-OH)]SCS[Aun]-OH; thioether N-14)
6.6 nM | Cc1cccc(C[C@@H]2NC(=O)[C@H](CC(=O)O)NC(=O)[C@H](Cc3ccc(OCC(=O)O)cc3)NC(=O)[C@H](CN)NC(=O)CSC[C@@H](C(=O)N[C@@H](CCC(=O)NCCCCCCCCCCC(=O)O)C(=O)O)NC(=O)[C@H]([C@@H](C)O)NC(=O)[C@H](C(C)C)NC(=O)[C@H](CC3CCCCC3)NC(=O)[C@H](CCN)NC(=O)[C@@H](CC(C)C)NC(=O)[C@H](CCCN)NC(=O)[C@H](CCCNC(N)=O)NC(=O)[C@H](Cc3ccc(-c4ccccc4)cc3)NC(=O)[C@H](C(C)C)NC2=O)c1 [Compound 1024] ({CH2CO}-[Dap]Y(Carboxymethyl)D[Phe(3-Me)]V[Bip][Cit][Orn][dL][Dab][Cha]VTC[γGlu][Aun]-OH; thioether N-14)
18.2 nM | Cc1cccc(C[C@@H]2NC(=O)[C@H](CC(=O)O)NC(=O)[C@H](Cc3ccc(OCC(=O)O)cc3)NC(=O)[C@H](CCCCNC(=N)N)NC(=O)CSC[C@@H](C(=O)N[C@@H](CCN)C(=O)NCCCCCCCCCCC(=O)O)NC(=O)[C@H](C(C)O)NC(=O)[C@H](C(C)C)NC(=O)[C@H](CC3CCCCC3)NC(=O)[C@H](CCN)NC(=O)[C@@H](CC(C)C)NC(=O)[C@H](CCCN)NC(=O)[C@H](CCCNC(=N)C(C)(C)F)NC(=O)[C@H](Cc3ccc(-c4ccccc4)cc3)NC(=O)[C@H](Cc3ccc(O)cc3)NC2=O)c1 (stereo partly drawn) [Compound 3579] ({CH2CO}-[hArg]Y(Carboxymethyl)D[Phe(3-Me)]Y[Bip][X3][Orn][dL][Dab][Cha]V[Thr(3ξ)]C[Dab][Aun]-OH; thioether N-14)
29.9 nM | Cc1cccc(C[C@@H]2NC(=O)[C@H](CC(=O)O)NC(=O)[C@H](Cc3ccc(OCC(=O)O)cc3)NC(=O)[C@H](CCCNC(=N)N)NC(=O)CSC[C@@H](C(=O)N[C@@H](CCN)C(=O)NCCCCCCCCCCC(=O)O)NC(=O)[C@H]([C@@H](C)O)NC(=O)[C@H](C(C)C)NC(=O)[C@H](CC3CCCCC3)NC(=O)[C@H](CCN)NC(=O)[C@@H](CC(C)C)NC(=O)[C@H](CCCN)NC(=O)[C@H](Cc3ccc(O)cc3)NC(=O)[C@H](Cc3ccc(-c4ccccc4)cc3)NC(=O)[C@H](C(C)C)NC2=O)c1 [Compound 2725] ({CH2CO}-RY(Carboxymethyl)D[Phe(3-Me)]V[Bip]Y[Orn][dL][Dab][Cha]VTC[Dab][Aun]-OH; thioether N-14)
36.2 nM | CC(C)C[C@H]1NC(=O)[C@H](CCCN)NC(=O)[C@H](Cc2ccc(O)cc2)NC(=O)[C@H](Cc2ccc(-c3ccccc3)cc2)NC(=O)[C@H](C(C)C)NC(=O)[C@H](Cc2c[nH]c3ccccc23)NC(=O)[C@H](CC(=O)O)NC(=O)[C@H](Cc2ccc(OCC(=O)O)cc2)NC(=O)[C@H](CCCNC(=N)N)NC(=O)CSC[C@@H](C(=O)N[C@@H](CCN)C(=O)NCCCCCCCCCCC(=O)O)NC(=O)[C@H](CCC#N)NC(=O)[C@H](C(C)C)NC(=O)[C@H](CC2CCCCC2)NC(=O)[C@H](CCN)NC1=O [Compound 3418] ({CH2CO}-RY(Carboxymethyl)DWV[Bip]Y[Orn][dL][Dab][Cha]V[Abu(4-CN)]C[Dab][Aun]-OH; thioether N-14)
15.3 nM | CC[C@H](C)[C@@H]1NC(=O)[C@H](Cc2ccc(-c3ccccc3)cc2)NC(=O)[C@H](C(C)C)NC(=O)[C@H](Cc2cccc(C)c2)NC(=O)[C@H](CC(=O)O)NC(=O)[C@H](Cc2ccc(C(=O)O)cc2)NC(=O)[C@H](Cc2ccncc2)NC(=O)CSC[C@@H](C(=O)N[C@@H](C)C(=O)N[C@@H](CC(=O)O)C(=O)NCC(=O)NCCCCCCCCCCC(=O)O)NC(=O)[C@H]([C@@H](C)O)NC(=O)[C@H](C(C)C)NC(=O)[C@H](CC2CCCCC2)NC(=O)[C@H](CCN)NC(=O)[C@@H](CC(C)C)NC(=O)[C@H](CCCN)NC1=O [Compound 1042]
6.3 nM | Cc1cccc(C[C@@H]2NC(=O)[C@H](CC(=O)O)NC(=O)[C@H](Cc3ccc(OCC(=O)O)cc3)NC(=O)[C@H](CN)NC(=O)CSC[C@@H](C(=O)NCCOCCOCC(=O)NCCCCCCCCCCC(=O)O)NC(=O)[C@H](CCCN)NC(=O)[C@H](C(C)C)NC(=O)[C@H](CC3CCCCC3)NC(=O)[C@H](CCN)NC(=O)[C@@H](CC(C)C)NC(=O)[C@H](CCCN)NC(=O)[C@H](Cc3ccc(O)cc3)NC(=O)[C@H](Cc3ccc(-c4ccccc4)cc3)NC(=O)[C@H](C(C)C)NC2=O)c1 [Compound 2692] ({CH2CO}-[Dap]Y(Carboxymethyl)D[Phe(3-Me)]V[Bip]Y[Orn][dL][Dab][Cha]V[Orn]C[AEEA][Aun]-OH; thioether N-14)
8.2 nM | CC(C)C[C@H]1NC(=O)[C@H](CCCN)NC(=O)[C@H](Cc2ccc(O)cc2)NC(=O)[C@H](Cc2ccc(-c3ccccc3)cc2)NC(=O)[C@H](Cc2ccc(OCC(=O)O)cc2)NC(=O)[C@H](Cc2cccc(C(F)(F)F)c2)NC(=O)[C@H](CC(=O)O)NC(=O)[C@H](Cc2ccc(OCC(=O)O)cc2)NC(=O)[C@H](CN)NC(=O)CSC[C@@H](C(=O)N[C@@H](CCN)C(=O)NCCOCCOCC(=O)NCCCCCCCCCCC(=O)O)NC(=O)[C@H](CCCN)NC(=O)[C@H](C(C)C)NC(=O)[C@H](CC2CCCCC2)NC(=O)[C@H](CCN)NC1=O [Compound 1287] ({CH2CO}-[Dap]Y(Carboxymethyl)D[Phe(3-CF3)]Y(Carboxymethyl)[Bip]Y[Orn][dL][Dab][Cha]V[Orn]C[Dab][AEEA][Aun]-OH; thioether N-14)
6.2 nM | Cc1cccc(C[C@@H]2NC(=O)[C@H](CC(=O)O)NC(=O)[C@H](Cc3ccc(C(=O)O)cc3)NC(=O)[C@H](CN3CCOCC3)NC(=O)CSC[C@@H](C(=O)N[C@@H](CCN)C(=O)NCCOCCOCC(=O)NCCOCCOCC(=O)NCCCCCCCCCCCCC(=O)O)NC(=O)[C@H](CO)NC(=O)[C@H](C(C)(C)O)NC(=O)[C@H](CC3CCCCC3)NC(=O)[C@H](CCN)NC(=O)[C@@H](CC(C)C)NC(=O)[C@H](CCCN)NC(=O)[C@H](Cc3ccc(C(=O)O)cc3)NC(=O)[C@H](Cc3ccc(-c4ccccc4)cc3)NC(=O)[C@H](Cc3ccc(C(=O)O)cc3)NC2=O)c1 [Compound 2900] ({CH2CO}-[Ala(morpholin-4-yl)][Phe(4-COOH)]D[Phe(3-Me)][Phe(4-COOH)][Bip][Phe(4-COOH)][Orn][dL][Dab][Cha][Val(3-OH)]SC[Dab][AEEA][AEEA]-{NH(CH2)12COOH}; thioether N-14)
